Assay results as given in patent US20110178104A1, “Anti-Heparin Compounds” (POLYMEDIX INC., priority 2010, published 2011).
Starred links: 1 amine or outer side, 2 acyl side, 3 side chain; linkers in the order of their positions; H or OH if unused. Non-standard residues stand in square brackets, D forms with d. Residues, ends and D or L forms follow the SMILES beside them. *: point of attachment. NH(3-CONH2-4-OMe-phenyl) = COc1ccc(N*)cc1C(N)=O; 3Abz(6-OMe) = COc1ccc(N[*:1])cc1C(=O)[*:2]

Legend:
[1] = tested on: unfractionated heparin (UFH); test: aPTT clotting assay, UFH 0.2 U/mL in plasma (Example 7); assay type: biochemical; settings: UFH 0.2 U/mL in plasma
Procedure: aPTT clotting Assay. Unfractionated heparin was mixed with plasma at a final concentration of 0.2 U/mL. […] The ACL Elite Hemostasis analyzer (Beckman Coulter™) was used to add aPTT reagent (HemosIL SynthASil) to supplemented plasma. Clotting was initiated by addition of CaCl2 and time to clot was recorded.

enoxaparin (ENOX) = test: FXa chromogenic assay (absence of plasma), enoxaparin; settings: enoxaparin 0.1 μg/mL, absence of plasma
fondaparinux (FONDAPX) = test: FXa chromogenic assay (absence of plasma), fondaparinux; settings: fondaparinux 0.02 μg/mL, absence of plasma

Row | UFH (aPTT) EC50 [1] | ENOX (FXa) EC50 (enoxaparin (ENOX)) [mg/L] | FONDAPX (FXa) EC50 (fondaparinux (FONDAPX)) [mg/L] | SMILES
1 | 1.67 mg/L | 0.22 | 1.12 | COc1ccc(NC(=O)[C@@H](CCCNC(=N)N)NC(=O)c2cc(NC(=O)[C@@H](CCCNC(=N)N)NC(=O)c3cc(NC(=O)[C@@H](CCCNC(=N)N)NC(=O)c4cc(NC(=O)CCCCNC(=N)N)ccc4OC)ccc3OC)ccc2OC)cc1C(N)=O [Compound 50]
2 | 1.55 mg/L | 0.33 | 1.59 | COc1ccc(NC(=O)[C@@H](CCCNC(=N)N)NC(=O)c2cc(NC(=O)[C@@H](CCCNC(=N)N)NC(=O)c3cc(NC(=O)[C@@H](CCCNC(=N)N)NC(=O)c4cc(NC(=O)[C@H](N)CO)ccc4OC)ccc3OC)ccc2OC)cc1C(N)=O [Compound 70]
3 | 2.11 mg/L | 0.22 | 1.22 | COc1ccc(NC(=O)[C@@H](CCCNC(=N)N)NC(=O)c2cc(NC(=O)[C@@H](CCCNC(=N)N)NC(=O)c3cc(NC(=O)[C@@H](CCCNC(=N)N)NC(=O)c4cc(NC(=O)[C@H](N)CC(N)=O)ccc4OC)ccc3OC)ccc2OC)cc1C(N)=O [Compound 72]
4 | 5.16 mg/L | 2.49 | 17.92 | COc1ccc(NC(=O)[C@@H](CCCNC(=N)N)NC(=O)c2cc(NC(=O)[C@@H](CCCNC(=N)N)NC(=O)c3cc(NC(=O)[C@H](C)NC(=O)[C@@H](CCCNC(=N)N)NC(=O)c4cc(NC(=O)[C@H](N)CCCNC(=N)N)ccc4OC)ccc3OC)ccc2OC)cc1C(N)=O [Compound 73] (H-[dR][3Abz(6-OMe)][dR]A[3Abz(6-OMe)][dR][3Abz(6-OMe)][dR]-{NH(3-CONH2-4-OMe-phenyl)})
5 | 5.20 mg/L | 5.13 | 47.76 | COc1ccc(NC(=O)[C@@H](CCCNC(=N)N)NC(=O)c2cc(NC(=O)[C@@H](CCCNC(=N)N)NC(=O)[C@H](C)NC(=O)c3cc(NC(=O)[C@@H](CCCNC(=N)N)NC(=O)c4cc(NC(=O)[C@H](N)CCCNC(=N)N)ccc4OC)ccc3OC)ccc2OC)cc1C(N)=O [Compound 74] (H-[dR][3Abz(6-OMe)][dR][3Abz(6-OMe)]A[dR][3Abz(6-OMe)][dR]-{NH(3-CONH2-4-OMe-phenyl)})
6 | 4.80 mg/L | 3.71 | 44.99 | COc1ccc(NC(=O)[C@@H](CCCNC(=N)N)NC(=O)c2cc(NC(=O)[C@H](C)NC(=O)[C@@H](CCCNC(=N)N)NC(=O)c3cc(NC(=O)[C@@H](CCCNC(=N)N)NC(=O)c4cc(NC(=O)[C@H](N)CCCNC(=N)N)ccc4OC)ccc3OC)ccc2OC)cc1C(N)=O [Compound 75] (H-[dR][3Abz(6-OMe)][dR][3Abz(6-OMe)][dR]A[3Abz(6-OMe)][dR]-{NH(3-CONH2-4-OMe-phenyl)})
7 | 4.73 mg/L | 1.02 | 14.79 | COc1ccc(NC(=O)[C@@H](CCCNC(=N)N)NC(=O)c2cc(NC(=O)[C@@H](CCCNC(=N)N)NC(=O)c3cc(NC(=O)[C@H](CCCNC(N)=O)NC(=O)c4cc(NC(=O)[C@H](N)CCCNC(=N)N)ccc4OC)ccc3OC)ccc2OC)cc1C(N)=O [Compound 83]
8 | 7.17 mg/L | 0.55 | 1.40 | COc1ccc(NC(=O)[C@H](CCCNC(=N)N)NC(=O)c2cc(NC(=O)[C@H](CCCNC(=N)N)NC(=O)c3cc(NC(=O)[C@H](CCCNC(=N)N)NC(=O)c4cc(NC(=O)[C@H](C)NC(=O)CCCCNC(=N)N)ccc4OC)ccc3OC)ccc2OC)cc1C(N)=O [Compound 92]

Second part, the molecule before the results:

Row | SMILES | UFH (aPTT) EC50 [1] | ENOX (FXa) EC50 (enoxaparin (ENOX)) [mg/L] | FONDAPX (FXa) EC50 (fondaparinux (FONDAPX)) [mg/L]
9 | COc1ccc(NC(=O)[C@@H](CCCNC(=N)N)NC(=O)c2cc(NC(=O)[C@@H](CCCNC(=N)N)NC(=O)c3cc(NC(=O)[C@@H](CCCNC(=N)N)NC(=O)c4cc(NC(C)=O)ccc4OC)ccc3OC)ccc2OC)cc1C(=O)NCCN [Compound 52] | 2.13 mg/L | 0.35 | 1.90
10 | COc1ccc(NC(=O)[C@@H](CCCNC(=N)N)NC(=O)c2cc(NC(=O)[C@@H](CCCNC(=N)N)NC(=O)c3cc(NC(=O)[C@@H](CCCNC(=N)N)NC(=O)c4cc(NC(C)=O)ccc4OC)ccc3OC)ccc2OC)cc1C(=O)NCCCCCN [Compound 53] | 2.08 mg/L | 0.21 | 1.12
11 | COc1ccc(NC(=O)[C@H](N)CCCNC(=N)N)cc1C(=O)N[C@H](CCCNC(=N)N)C(=O)Nc1ccc(OC)c(C(=O)N[C@H](CCCNC(=N)N)C(=O)Nc2ccc(OC)c(C(=O)N[C@H](CCCNC(=N)N)C(=O)Nc3cccc(C(N)=O)c3)c2)c1 [Compound 67] | 1.75 mg/L | 0.33 | 5.19
12 | COc1ccc(NC(=O)[C@@H](CCCNC(=N)N)NC(=O)c2cccc(NC(=O)[C@@H](CCCNC(=N)N)NC(=O)c3cc(NC(=O)[C@@H](CCCNC(=N)N)NC(=O)c4cc(NC(=O)[C@H](N)CCCNC(=N)N)ccc4OC)ccc3OC)c2)cc1C(N)=O [Compound 68] | 1.99 mg/L | 0.29 | 4.26
13 | COc1ccc(NC(=O)[C@@H](CCCNC(=N)N)NC(=O)c2cc(NC(=O)[C@@H](CCCNC(=N)N)NC(=O)c3cccc(NC(=O)[C@@H](CCCNC(=N)N)NC(=O)c4cc(NC(=O)[C@H](N)CCCNC(=N)N)ccc4OC)c3)ccc2OC)cc1C(N)=O [Compound 69] | 1.58 mg/L | 0.19 | 2.74
14 | COc1ccc(NC(=O)[C@@H](CCCNC(=N)N)NC(=O)c2cc(NC(=O)[C@@H](CCCNC(=N)N)NC(=O)c3cc(NC(=O)[C@@H](CCCNC(=N)N)NC(=O)c4cc(NC(=O)[C@H](N)Cc5c[nH]c6ccccc56)ccc4OC)ccc3OC)ccc2OC)cc1C(N)=O [Compound 71] | 2.58 mg/L | 0.87 | 0.86
15 | COc1ccc(NC(=O)[C@H](CCCCN)NC(=O)c2cc(NC(=O)[C@H](C)NC(=O)c3cc(NC(=O)[C@H](CCCCN)NC(=O)c4cc(NC(=O)[C@@H](N)CCCCN)ccc4OC)ccc3OC)ccc2OC)cc1C(N)=O [Compound 76] | 6.00 mg/L | 1.49 | 10.50
16 | COc1ccc(NC(=O)[C@H](CCCCN)NC(=O)c2cc(NC(=O)[C@H](CCCCN)NC(=O)c3cc(NC(=O)[C@H](C)NC(=O)c4cc(NC(=O)[C@@H](N)CCCCN)ccc4OC)ccc3OC)ccc2OC)cc1C(N)=O [Compound 77] | 4.55 mg/L | 0.61 | 2.47
17 | COc1ccc(NC(=O)[C@H](CCCNC(=N)N)NC(=O)c2cc(NC(=O)[C@H](CCCCN)NC(=O)c3cc(NC(=O)[C@H](CCCCN)NC(=O)c4cc(NC(=O)[C@@H](N)CCCCN)ccc4OC)ccc3OC)ccc2OC)cc1C(N)=O [Compound 78] | 2.99 mg/L | 0.49 | 6.28
18 | COc1ccc(NC(=O)[C@H](CCCCN)NC(=O)c2cc(NC(=O)[C@H](CCCNC(=N)N)NC(=O)c3cc(NC(=O)[C@H](CCCCN)NC(=O)c4cc(NC(=O)[C@@H](N)CCCCN)ccc4OC)ccc3OC)ccc2OC)cc1C(N)=O [Compound 79] | 3.02 mg/L | 0.41 | 7.07
19 | COc1ccc(NC(=O)[C@H](CCCCN)NC(=O)c2cc(NC(=O)[C@H](CCCCN)NC(=O)c3cc(NC(=O)[C@H](CCCNC(=N)N)NC(=O)c4cc(NC(=O)[C@@H](N)CCCCN)ccc4OC)ccc3OC)ccc2OC)cc1C(N)=O [Compound 80] | inactive | 0.35 | 4.34
20 | COc1ccc(NC(=O)[C@H](CCCCN)NC(=O)c2cc(NC(=O)[C@H](CCCCN)NC(=O)c3cc(NC(=O)[C@H](CCCCN)NC(=O)c4cc(NC(=O)[C@@H](N)CCCNC(=N)N)ccc4OC)ccc3OC)ccc2OC)cc1C(N)=O [Compound 81] | 1.97 mg/L | 0.26 | 3.23
21 | COc1ccc(NC(=O)[C@@H](Cc2c[nH]c3ccccc23)NC(=O)c2cc(NC(=O)[C@@H](CCCNC(=N)N)NC(=O)c3cc(NC(=O)[C@@H](CCCNC(=N)N)NC(=O)c4cc(NC(=O)[C@H](N)CCCNC(=N)N)ccc4OC)ccc3OC)ccc2OC)cc1C(N)=O [Compound 84] | 3.09 mg/L | 0.32 | 1.99
22 | N=C(N)NCCCCC(=O)Nc1cc(C(F)(F)F)cc(NC(=O)c2ccc(C(=O)Nc3cc(C(F)(F)F)cc(NC(=O)CCCCNC(=N)N)c3SCCN)cc2)c1SCCN [Compound 87] | >10 mg/L | 6.35 | 15.91
23 | COc1cc(C(=O)Nc2cc(C(F)(F)F)cc(NC(=O)CCCCNC(=N)N)c2SCCN)c(OC)cc1C(=O)Nc1cc(C(F)(F)F)cc(NC(=O)CCCCNC(=N)N)c1SCCN [Compound 88] | 4.30 mg/L | 0.24 | 1.38
24 | COc1ccc(NC(=O)[C@H](CCCCN)NC(=O)c2cc(NC(=O)[C@H](CCCCN)NC(=O)c3cc(NC(=O)[C@H](CCCCN)NC(=O)c4cc(NC(=O)[C@@H](N)CCCCN)ccc4OC)ccc3OC)ccc2OC)cc1C(N)=O [Compound 90] | 0.9713 mg/L | 0.093 | 0.272
25 | COc1ccc(NC(=O)[C@H](CCCCN)NC(=O)c2cc(NC(=O)[C@H](CCCCN)NC(=O)c3cc(NC(=O)[C@H](CCCCN)NC(=O)c4cccc(NC(=O)[C@@H](N)CCCCN)c4)ccc3OC)ccc2OC)cc1C(N)=O [Compound 91] | 2.03 mg/L | 0.58 | 13.11
